US20260365682A1, “MODULATORS OF TNF-ALPHA ACTIVITY” (Forward Therapeutics, Inc., priority 2022, published 2026)
pIC50: −log10 of the molar value.

Target: T1, TNF-α (Homo sapiens, UniProt P01375)
T1 construct: purchased R&D 210-TA-020/CF
Experiment: TNF-α Induced HEK Blue Cellular Assay (secreted alkaline phosphatase expression, QUANTI-Blue)
Type: cell-based
Details: HEK Blue TNFα reporter cells; TNF-α 100 μg/ml; 24 hrs at 37° C.; inhibition of secreted alkaline phosphatase; read-out: IC50 value
In short: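 Compound was serially diluted from […] to 0.5 nM final, then incubated with 10,000 HEK Blue TNFα reporter cells per well and […] TNF-α for 24 h at 37° C. SEAP output was read by QUANTI-Blue absorbance at 620 nm. Inhibition was background-corrected against DMSO controls with and without stimulation, and IC50 was fitted with a 4-parameter logistic equation.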

T1 sequence (P01375 77-233 limits assumed): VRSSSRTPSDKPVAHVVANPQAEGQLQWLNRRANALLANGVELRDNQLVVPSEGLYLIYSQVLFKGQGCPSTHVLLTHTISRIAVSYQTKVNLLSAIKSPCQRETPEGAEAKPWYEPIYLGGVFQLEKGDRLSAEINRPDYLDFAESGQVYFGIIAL

Row | pIC50 | Compound
1 | > 7.00 | [2H]C([2H])([2H])N1C(=O)c2cccc(OC(F)F)c2[C@H]2C[C@@H]1c1nc3ccc(C#Cc4nnc(C)o4)cc3n12 [Example 28, (7R,14R)-1-(difluoromethoxy)-6-(methyl-d3)-11-((5-methyl-1,3,4-oxadiazol-2-yl)ethynyl)-6,7-dihydro-7,14-methanobenzo[f]benzo[4,5]imidazo[1,2-a][1,4]diazocin-5(14H)-one]
2 | > 7.00 | [2H]C([2H])([2H])N1C(=O)c2cccc(OC(F)F)c2[C@H]2C[C@@H]1c1nc3ccc(C#CC(C)CCO)cc3n12 (single isomer, unassigned) [Example 240, (7R,14R)-1-(difluoromethoxy)-11-((R or S)-5-hydroxy-3-methylpent-1-yn-1-yl)-6-(methyl-d3)-6,7-dihydro-7,14-methanobenzo[f]benzo[4,5]imidazo[1,2-a][1,4]diazocin-5(14H)-one]
3 | > 7.00 | [2H]C([2H])([2H])N1C(=O)c2cccc(OC(F)F)c2[C@H]2C[C@@H]1c1nc3ccc(C#CCCC(C)C)cc3n12 [Example 94, (7R,14R)-1-(difluoromethoxy)-6-(methyl-d3)-11-(5-methylhex-1-yn-1-yl)-6,7-dihydro-7,14-methanobenzo[f]benzo[4,5]imidazo[1,2-a][1,4]diazocin-5(14H)-one]
4 | > 7.00 | [2H]C([2H])([2H])N1C(=O)c2cccc(OC(F)F)c2[C@H]2C[C@@H]1c1nc3ccc(C#CC#N)cc3n12 [Example 262, 3-((7R,14R)-1-(difluoromethoxy)-6-(methyl-d3)-5-oxo-5,6,7,14-tetrahydro-7,14-methanobenzo[f]benzo[4,5]imidazo[1,2-a][1,4]diazocin-11-yl)propiolonitrile]
5 | > 7.00 | [2H]C([2H])([2H])N1C(=O)c2cccc(OC(F)F)c2[C@H]2C[C@@H]1c1nc3ccc(C#CC4CCCN(C)C4)cc3n12 (stereo partly drawn) [Example 63, (7R,14R)-1-(difluoromethoxy)-6-(methyl-d3)-11-((1-methylpiperidin-3-yl)ethynyl)-6,7-dihydro-7,14-methanobenzo[f]benzo[4,5]imidazo[1,2-a][1,4]diazocin-5(14H)-one]
6 | > 7.00 | [2H]C([2H])([2H])N1C(=O)c2cccc(OC(F)F)c2[C@H]2C[C@@H]1c1nc3ccc(C#CC4(C)CN(C5CC5)C4)cc3n12 [Example 211, (7R,14R)-11-((1-cyclopropyl-3-methylazetidin-3-yl)ethynyl)-1-(difluoromethoxy)-6-(methyl-d3)-6,7-dihydro-7,14-methanobenzo[f]benzo[4,5]imidazo[1,2-a][1,4]diazocin-5(14H)-one]
7 | > 7.00 | [2H]C([2H])([2H])N1C(=O)c2cccc(OC(F)F)c2[C@H]2C[C@@H]1c1nc3ccc(C#CCCN4CC(F)C4)cc3n12 [Example 228, (7R,14R)-1-(difluoromethoxy)-11-(4-(3-fluoroazetidin-1-yl)but-1-yn-1-yl)-6-(methyl-d3)-6,7-dihydro-7,14-methanobenzo[f]benzo[4,5]imidazo[1,2-a][1,4]diazocin-5(14H)-one]
8 | 6.00 to 7.00 | [2H]C([2H])([2H])N1C(=O)c2cccc(OC(F)F)c2[C@H]2C[C@@H]1c1nc3ccc(C#CCOc4ccccc4)cc3n12 [Example 79, (7R,14R)-1-(difluoromethoxy)-6-(methyl-d3)-11-(3-phenoxyprop-1-yn-1-yl)-6,7-dihydro-7,14-methanobenzo[f]benzo[4,5]imidazo[1,2-a][1,4]diazocin-5(14H)-one]
9 | > 7.00 | [2H]C([2H])([2H])N1C(=O)c2cccc(OC(F)F)c2[C@H]2C[C@@H]1c1nc3ccc(C#Cc4cncc(F)c4)cc3n12 [Example 31, (7R,14R)-1-(difluoromethoxy)-11-((5-fluoropyridin-3-yl)ethynyl)-6-(methyl-d3)-6,7-dihydro-7,14-methanobenzo[f]benzo[4,5]imidazo[1,2-a][1,4]diazocin-5(14H)-one]
10 | > 7.00 | [2H]C([2H])([2H])N1C(=O)c2cccc(OC(F)F)c2[C@H]2C[C@@H]1c1nc3ccc(C#CCC(O)C(C)O)cc3n12 (single isomer, unassigned) [Example 243, (7R,14R)-1-(difluoromethoxy)-11-((4R or 4S,5S or 5R)-4,5-dihydroxyhex-1-yn-1-yl)-6-(methyl-d3)-6,7-dihydro-7,14-methanobenzo[f]benzo[4,5]imidazo[1,2-a][1,4]diazocin-5(14H)-one]
11 | 6.00 to 7.00 | [2H]C([2H])([2H])N1C(=O)c2cccc(OC(F)F)c2[C@H]2C[C@@H]1c1nc3ccc(C#CC4(C)CCN(C(=O)C(C)(C)C)C4)cc3n12 (stereo partly drawn) [Example 190, (7R,14R)-1-(difluoromethoxy)-6-(methyl-d3)-11-((3-methyl-1-pivaloylpyrrolidin-3-yl)ethynyl)-6,7-dihydro-7,14-methanobenzo[f]benzo[4,5]imidazo[1,2-a][1,4]diazocin-5(14H)-one]
12 | 4.52 to 5.00 | [2H]C([2H])([2H])N1C(=O)c2cccc(OC(F)F)c2[C@H]2C[C@@H]1c1nc3ccc(C#CC(N)CC(C)(C)O)cc3n12 (single isomer, unassigned) [Example 217, (7R,14R)-11-((R or S)-3-amino-5-hydroxy-5-methylhex-1-yn-1-yl)-1-(difluoromethoxy)-6-(methyl-d3)-6,7-dihydro-7,14-methanobenzo[f]benzo[4,5]imidazo[1,2-a][1,4]diazocin-5(14H)-one]
13 | 4.52 to 5.00 | [2H]C([2H])([2H])N1C(=O)c2cccc(OC(F)F)c2[C@H]2C[C@@H]1c1nc3ccc(C#CC4(C)CCN(C(=O)C5CC5)C4)cc3n12 (stereo partly drawn) [Example 189, (7R,14R)-11-((1-(cyclopropanecarbonyl)-3-methylpyrrolidin-3-yl)ethynyl)-1-(difluoromethoxy)-6-(methyl-d3)-6,7-dihydro-7,14-methanobenzo[f]benzo[4,5]imidazo[1,2-a][1,4]diazocin-5(14H)-one]
14 | 6.00 to 7.00 | [2H]C([2H])([2H])N1C(=O)c2cccc(OC(F)F)c2[C@H]2C[C@@H]1c1nc3ccc(C#CC(C)CN4CC(F)C4)cc3n12 (stereo partly drawn) [Example 248, (7R,14R)-1-(difluoromethoxy)-11-(4-(3-fluoroazetidin-1-yl)-3-methylbut-1-yn-1-yl)-6-(methyl-d3)-6,7-dihydro-7,14-methanobenzo[f]benzo[4,5]imidazo[1,2-a][1,4]diazocin-5(14H)-one]
15 | > 7.00 | [2H]C([2H])([2H])N1C(=O)c2cccc(OC(F)F)c2[C@H]2C[C@@H]1c1nc3ccc(C#Cc4cncnc4)cc3n12 [Example 11, (7R,14R)-1-(difluoromethoxy)-6-(methyl-d3)-11-(pyrimidin-5-ylethynyl)-6,7-dihydro-7,14-methanobenzo[f]benzo[4,5]imidazo[1,2-a][1,4]diazocin-5(14H)-one]
16 | > 7.00 | [2H]C([2H])([2H])N1C(=O)c2cccc(OC(F)F)c2[C@H]2C[C@@H]1c1nc3ccc(C#Cc4nnc(C)s4)cc3n12 [Example 29, (7R,14R)-1-(difluoromethoxy)-6-(methyl-d3)-11-((5-methyl-1,3,4-thiadiazol-2-yl)ethynyl)-6,7-dihydro-7,14-methanobenzo[f]benzo[4,5]imidazo[1,2-a][1,4]diazocin-5(14H)-one]
17 | > 7.00 | [2H]C([2H])([2H])N1C(=O)c2cccc(OC(F)F)c2[C@H]2C[C@@H]1c1nc3ccc(C#Cc4ccc(P(C)(C)=O)nc4)cc3n12 [Example 112, (7R,14R)-1-(difluoromethoxy)-11-((6-(dimethylphosphoryl)pyridin-3-yl)ethynyl)-6-(methyl-d3)-6,7-dihydro-7,14-methanobenzo[f]benzo[4,5]imidazo[1,2-a][1,4]diazocin-5(14H)-one]
